Patent US20070161634A1, “Compounds as CCR5 antagonists” (priority 2004, published 2007)
Read-outs that look alike come from different tables or passages of the source.

Experiments:
CCR5 receptor = CCR5 receptor (Homo sapiens, UniProt P51681); assay: [35S]GTPγS binding assay; type: biochemical
Description: [^35S]GTPγS binding assay
CCR5 receptor binds to agonists and changes its conformation which enables it to interact with and activate G protein, a heterotrimer which consists of subunits α and βγ. The capability of G protein α subunit binding to GTP depends on the effect between CCR5 and the agonists, therefore, the amount of α subunit bound GTP should reflect the agonists activity on the CCR5 receptor. In the GTPγS binding assay, [^35S]GTPγS is resistant to the GTPase activity of α subunit, and thus cannot be hydrolyzed when bound to G protein, making it accurate to reflect the receptor activation. Radiolabled [^35S]GTPγS can also serve as marker for detection in place of GTP. When CCR5 is not activated, α subunit is bound to GDP, but when CCR5 is activated, α subunit binds to [^35S]GTPγS, therefore, measurement of the number of the α subunit-bound ^35S-GTPγS can reflect the CCR5 activation level.
CCR5 activation of G-protein was measured according to assays below:
Permanent cell line expressing CHO of CCR5 (available at Euroscreen S.A., Belgium) was lysed by lysis buffer (5 mM Tris HCl, pH 7.5, 5 mM EDTA and 5 mM EGTA), and centrifuged at 15,000×g for 10 min. Cell membrane was resuspended with reaction buffer (5 mM Tris HCl, pH 7.5, 5 mM MgCl2, 1 mM EGTA, 100 mM NaCl), and protein concentrations were determined using Bioford assay (Bio-rad). [^35S]GTPγS binding assay was performed in the 100 μl reaction buffer system, which contains 10 ug membrane protein, 40 uM GDP and 0.5 nM [^35S]GTPγS (1200 Ci/mmol). After adding the study compounds, the system was vortexed and placed on ice for 5 min, and then CCR5 agonist was added (10 nM RANTES or 30 nM MIP1β). After vortexing, the reaction tubes were incubated at 30° C. for 1 h. After the reaction was complete, the reaction tubes were placed on ice and diluted with PBS to terminate the reaction. After suction through the GF/C filter membrane under vacuum, the membrane bound radioactivity was measured with a scintillation counter. Basal binding was measured without presence of agonist, and non-specific binding was measured in the presence of 10 mM nonisotopical GTPγS. The binding ratio of [^35S]GTPγS was calculated according to 100×[c.p.m.sample−c.p.m. non-specific]/[c.p.m.basal−c.p.m. non-specific]. IC50 was the compound concentration at which half of the [^35S]GTPγS binding induced by 10 nM RANTES or 30 nM MIP1β was inhibited, and the value was obtained from the concentration-inhibition curve (6-7 points for concentrations of each compound).

MTT cytotoxicity assay = type: cell-based; details: human, peripheral blood mononuclear cells (PBMC) and Jurkat cells; MTT
Experimental: (§1) C. MTT Cytotoxicity Assay
(§2) Cells were prepared as single cell suspension, and cell densities were adjusted according to the cell size and cell features. Cells were inoculated with 100 ul culture media into 96 well plates, and incubated in 37° C. incubator (5% CO2, saturated humidity). The seeding densities were as follows: peripheral blood monouclear cells (PBMC) 10^5 cells /well, Jurket 4×10^4 cells/well. 24 h after cell inoculation, the compounds to be tested were added and incubated with cells. 48 h after inoculation, 10 μl MTT (Sigma, USA, 5 mg/ml, diluted with PBS and stored at −20° C.) was added to each well, and incubated for another 4 h in 37° C. incubator. Then add 50 μl formazane solvent (10%SDS-5%isopropanol−0.01M HCl) and incubate overnight. Determine OD570/OD630 nm at spectrophotometer, and calculate CC50 according to the inhibition curve.

[1] = system: peripheral blood monouclear cells (PBMC), Jurket; assay: MTT cytotoxicity assay; type: cell-based; details: at 10,000 nM
Experimental: as §1, §2

CCR1 = target: T1, CCR1 (Homo sapiens, UniProt P32246); assay: effects on the activation of CCR1 receptor; details: at the concentration of 10,000 nM
T1 sequence (P32246 1-355): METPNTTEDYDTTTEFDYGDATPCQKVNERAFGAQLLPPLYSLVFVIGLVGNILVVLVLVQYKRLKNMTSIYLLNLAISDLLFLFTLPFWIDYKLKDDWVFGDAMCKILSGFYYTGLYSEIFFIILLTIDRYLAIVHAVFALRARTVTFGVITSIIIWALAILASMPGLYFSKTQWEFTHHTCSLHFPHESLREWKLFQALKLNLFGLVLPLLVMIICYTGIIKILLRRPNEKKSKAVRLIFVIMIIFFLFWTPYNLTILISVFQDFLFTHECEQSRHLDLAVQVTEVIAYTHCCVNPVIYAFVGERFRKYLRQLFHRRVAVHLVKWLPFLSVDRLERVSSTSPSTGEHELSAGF

CXCR4 = CXCR4 (Homo sapiens, UniProt P61073); assay: effects on the activation of CXCR4 receptor; details: at the concentration of 10,000 nM
[2] = Table I, [35S]GTPγS binding, read-out: IC50
[3] = [35S]GTPγS binding initiated by 10 nM RANTES, read-out: IC50(nM) ± S.E.
[4] = Table I, class symbols, inhibition at 10,000 nM, read-out: IC50
[5] = [35S]GTPγS binding initiated by 10 nM RANTES, class symbols, inhibition at 10,000 nM, read-out: IC50(nM) ± S.E.

Sequence of CXCR4 (P61073 whole entry, species assumed): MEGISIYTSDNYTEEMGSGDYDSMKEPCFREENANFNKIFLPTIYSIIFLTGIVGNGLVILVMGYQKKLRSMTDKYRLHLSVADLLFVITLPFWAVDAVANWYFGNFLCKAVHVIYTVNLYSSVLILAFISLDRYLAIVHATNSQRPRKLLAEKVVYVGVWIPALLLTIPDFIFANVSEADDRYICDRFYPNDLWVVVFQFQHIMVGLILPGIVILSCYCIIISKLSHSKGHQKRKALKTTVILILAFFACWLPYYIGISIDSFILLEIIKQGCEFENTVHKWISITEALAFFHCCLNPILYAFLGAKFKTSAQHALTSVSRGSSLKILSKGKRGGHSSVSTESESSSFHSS
Sequence of CCR5 receptor (P51681 whole entry): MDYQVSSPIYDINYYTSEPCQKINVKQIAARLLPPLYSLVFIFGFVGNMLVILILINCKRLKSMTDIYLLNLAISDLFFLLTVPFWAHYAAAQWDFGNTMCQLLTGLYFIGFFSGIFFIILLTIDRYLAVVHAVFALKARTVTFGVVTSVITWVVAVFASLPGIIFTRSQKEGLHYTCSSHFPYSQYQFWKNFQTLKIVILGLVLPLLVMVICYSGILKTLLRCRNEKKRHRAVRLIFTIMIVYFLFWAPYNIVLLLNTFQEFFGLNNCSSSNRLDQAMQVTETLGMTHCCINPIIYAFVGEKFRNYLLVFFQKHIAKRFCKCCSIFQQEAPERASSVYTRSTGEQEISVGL

SMILES: OC1(c2ccc3c(c2)OCO3)CN(Cc2ccccc2)CC1CN1CCC(c2ccccc2)CC1 (centres unmarked) [I-a-a, 1-benzyl-3-(benzo[1,3]dioxol-5-yl)-4-[(4-phenylpiperidin-1-yl)methyl]pyrrolidin-3-ol]
- IC50 (CCR5 receptor; [2]): ~10000 nM
- IC50 (CCR5 receptor; [3]): ~10000 nM

SMILES: O=C(c1ccccc1)N1CC(CN2CCC(c3ccccc3)CC2)C(O)(c2ccccc2)C1 (centres unmarked) [I-b-b, (3-hydroxy-3-phenyl-4-[(4-phenylpiperidin-1-yl)methyl]pyrrolidin-1-yl)(phenyl)methanone]
- IC50 (CCR5 receptor; [2]): 2860 ± 860 nM
- IC50 (CCR5 receptor; [3]): 2860 ± 60 nM

SMILES: O=C(c1ccccc1I)N1CC(CN2CCC(c3ccccc3)CC2)C(O)(c2ccccc2)C1 (centres unmarked) [I-b-c, (3-hydroxy-3-phenyl-4-[(4-phenylpiperidin-1-yl)methyl]pyrrolidin-1-yl)(2-iodophenyl) methanone]
- IC50 (CCR5 receptor; [2]): 1160 ± 224 nM
- IC50 (CCR5 receptor; [3]): 1160 ± 224 nM

SMILES: O=S(=O)(c1ccccc1)N1CC(CN2CCC(c3ccccc3)CC2)C(O)(c2ccccc2)C1 (centres unmarked) [I-b-d, 3-phenyl-4-[(4-phenylpiperidin-1-yl)methyl]-1-(phenylsulfonyl)pyrrolidin-3-ol]
- IC50 (CCR5 receptor; [4]): > 10000 nM
- IC50 (CCR5 receptor; [5]): > 10000 nM

SMILES: O=C(C1CCCC1)N1CC(CN2CCC(c3ccccc3)CC2)C(O)(c2ccccc2)C1 (centres unmarked) [I-b-e, Cyclopentyl-(3-hydroxy-3-phenyl-4-[(4-phenylpiperidin-1-yl)methyl]pyrrolidin-1-yl)metha none]
- IC50 (CCR5 receptor; [2]): 1890 ± 615 nM
- IC50 (CCR5 receptor; [3]): 1890 ± 615 nM

SMILES: OC1(c2ccccc2)CN(Cc2ccccc2)CC1CN1CCC(CCCc2ccccc2)CC1 (centres unmarked) [I-b-g, 1-benzyl-3-phenyl-4-{[4-(3-phenylpropyl)piperidin-1-yl]methyl}pyrrolidin-3-ol]
- IC50 (CCR5 receptor; [2]): 408 ± 10.5 nM
- IC50 (CCR5 receptor; [3]): 408 ± 10.5 nM

SMILES: OC1(CCCc2ccccc2)CCN(CC2CN(Cc3ccccc3)CC2(O)c2ccccc2)CC1 (centres unmarked) [I-b-h, 1-[(1-benzyl-4-hydroxy-4-phenylpyrrolidin-3-yl)methyl]-4-(3-phenylpropyl)piperidin-4-ol]
- IC50 (CCR5 receptor; [2]): 368 ± 52 nM
- IC50 (CCR5 receptor; [3]): 368 ± 52 nM

SMILES: OC1(c2ccc(F)cc2)CN(Cc2ccccc2)CC1CN1CCC(c2ccccc2)CC1 (centres unmarked) [I-b-j, 1-benzyl-3-(4-fluorophenyl)-4-((4-phenylpiperidin-1-yl)methyl)pyrrolidin-3-ol]
- IC50 (CCR5 receptor; [4]): > 10000 nM
- IC50 (CCR5 receptor; [5]): > 10000 nM

SMILES: OC1(CCCc2ccccc2)CCN(CC2CN(Cc3ccccc3)CC2(O)c2ccc(F)cc2)CC1 (centres unmarked) [I-b-k, 1-{[1-benzyl-4-(4-fluorophenyl)-4-hydroxypyrrolidin-3-yl]methyl}-4-(3-phenylpropyl)piper idin-4-ol]
- IC50 (CCR5 receptor; [2]): 2510 nM
- IC50 (CCR5 receptor; [3]): 2510 nM

SMILES: CCN(C(=O)OCc1ccccc1)C1CCN(CC2CN(Cc3ccccc3)CC2(O)c2ccccc2)CC1 (centres unmarked) [II-a-a, Benzyl 1-[(1-benzyl-4-hydroxy-4-phenylpyrrolidin-3-yl)methyl]piperidin-4-yl (ethyl)carbamate]
- IC50 (CCR5 receptor; [2]): 401 ± 87.5 nM
- IC50 (CCR5 receptor; [3]): 401 ± 87.5 nM
- CC50 at 24 h (MTT cytotoxicity assay): ~30000 nM
- cytotoxicity on cells [1]: no significant cytotoxicity
- activation or antagonism of CCR1 receptor (CCR1): do not activate or antagonize
- activation or antagonism of CXCR4 receptor (CXCR4): do not activate or antagonize

SMILES: CCN(C(=O)OCc1ccccc1)C1CCN(CC2CN(Cc3ccccc3)CC2(O)c2ccc(F)cc2)CC1 (centres unmarked) [II-a-b, Benzyl 1-[(1-benzyl-4-(4-fluorophenyl)-4-hydroxypyrrolidin-3-yl)methyl]piperidin-4-yl (ethyl)carbamate]
- IC50 (CCR5 receptor; [2]): 565 ± 64.5 nM
- IC50 (CCR5 receptor; [3]): 565 ± 64.5 nM

SMILES: CCN(C(=O)OCc1ccccc1)C1CCN(CC2CN(Cc3ccccc3)CC2(C)O)CC1 (centres unmarked) [II-a-c]
- IC50 (CCR5 receptor; [4]): > 10000 nM
- IC50 (CCR5 receptor; [5]): > 10000 nM

SMILES: C=CCN(C(=O)OCc1ccc([N+](=O)[O-])cc1)C1CCN(CC2CN(Cc3ccccc3)CC2(O)c2ccccc2)CC1 (centres unmarked) [III-a-a, 4-nitrobenzyl allyl(1-((1-benzyl-4-hydroxy-4-phenylpyrrolidin-3-yl)methyl)piperidin-4-yl) carbamate]
- IC50 (CCR5 receptor; [2]): ~10000 nM
- IC50 (CCR5 receptor; [3]): ~10000 nM
- activation or antagonism of CCR1 receptor (CCR1): do not activate or antagonize
- activation or antagonism of CXCR4 receptor (CXCR4): do not activate or antagonize

SMILES: C=CCN(C(=O)OCc1ccc([N+](=O)[O-])cc1)C1CCN(CC2CN(C(=O)c3ccccc3)CC2(O)c2ccccc2)CC1 (centres unmarked) [III-a-b, 4-nitrobenzyl allyl(1-((1-benzoyl-4-hydroxy-4-phenylpyrrolidin-3-yl)methyl)piperidin-4-yl) carbamate]
- IC50 (CCR5 receptor; [2]): 9.7 ± 0.7 nM
- IC50 (CCR5 receptor; [3]): 9.7 ± 0.7 nM
- CC50 at 24 h (MTT cytotoxicity assay): ~30000 nM
- cytotoxicity on cells [1]: no significant cytotoxicity
- activation or antagonism of CCR1 receptor (CCR1): do not activate or antagonize
- activation or antagonism of CXCR4 receptor (CXCR4): do not activate or antagonize

SMILES: C=CCN(C(=O)OCc1ccccc1)C1CCN(CC2CN(C(=O)C3CCCC3)CC2(O)c2ccccc2)CC1 (centres unmarked) [III-a-h, benzyl allyl(1-((1-(cyclo-pentanecarbonyl)-4-hydroxy-4-phenylpyrrolidin-3-yl)methyl)piperi-din-4-yl) carbamate]
- IC50 (CCR5 receptor; [2]): 8.75 nM
- IC50 (CCR5 receptor; [3]): 8.75 nM

SMILES: C=CCN(C(=O)OCc1ccc(OC)cc1)C1CCN(CC2CN(C(=O)C3CCCC3)CC2(O)c2ccccc2)CC1 (centres unmarked) [III-a-i, 4-methoxybenzyl allyl(1-((1-(cyclo-pentanecarbonyl)-4-hydroxy-4-phenylpyrrolidin-3-yl)methyl)piperi-din-4-yl) carbamate]
- IC50 (CCR5 receptor; [2]): 4.33 nM
- IC50 (CCR5 receptor; [3]): 4.33 nM

SMILES: C=CCN(C(=O)OCc1ccc(Br)cc1)C1CCN(CC2CN(C(=O)C3CCCC3)CC2(O)c2ccccc2)CC1 (centres unmarked) [III-a-j, 4-bromobenzyl allyl(1-((1-cyclo-pentanecar-bonyl)-4-hydroxy-4-phenylpyrrolidin-3-yl)methyl) piperidin-4-yl) carbamate]
- IC50 (CCR5 receptor; [2]): 8.87 nM
- IC50 (CCR5 receptor; [3]): 8.87 nM

SMILES: C=CCN(C(=O)Nc1ccccc1)C1CCN(CC2CN(C(=O)C3CCCC3)CC2(O)c2ccccc2)CC1 (centres unmarked) [III-a-k, 1-allyl-1-(1-((1-(cyclopentane-carbonyl)-4-hydroxy-4-phenylpyrrolidin-3-yl)methyl)piperidin-4-yl)-3-phenylurea]
- IC50 (CCR5 receptor; [2]): 6.46 nM
- IC50 (CCR5 receptor; [3]): 6.46 nM

SMILES: C=CCN(C(=O)COc1ccccc1)C1CCN(CC2CN(C(=O)C3CCCC3)CC2(O)c2ccccc2)CC1 (centres unmarked) [III-a-l, N-allyl-N-(1-((1-(cyclopen-tanecarbonyl)-4-hydroxy-4-phenylpyrrolidin-3-yl)methyl)piperi-din-4-yl)-3-phenoxy acetamide]
- IC50 (CCR5 receptor; [2]): 13.6 nM
- IC50 (CCR5 receptor; [3]): 13.6 nM

SMILES: C[C@H]1[C@@H](CN2CCC(c3ccccc3)CC2)C(O)(c2ccccc2)CN1Cc1ccccc1 (some centres unmarked) [IV-a-a, 1-benzyl-5-methyl-3-phenyl-4-[(4-phenylpiperi-din-1-yl)methyl]py-rrolidin-3-ol]
- IC50 (CCR5 receptor; [4]): > 10000 nM
- IC50 (CCR5 receptor; [5]): > 10000 nM
